# Results as given in patent publication US6949529B2, “Compositions containing lysophosphotidic acids which inhibit apoptosis and uses thereof” (Sky High, LLC, priority 1997, dated 2005).
# B1: Ovalbumin: source chicken egg (protein, UniProt P01012 2-386, looked up)
# Ovalbumin: GSIGAASMEFCFDVFKELKVHHANENIFYCPIAIMSALAMVYLGAKDSTRTQINKVVRFDKLPGFGDSIEAQCGTSVNVHSSLRDILNQITKPNDVYSFSLASRLYAEERYPILPEYLQCVKELYRGGLEPINFQTAADQARELINSWVESQTNGIIRNVLQPSSVDSQTAMVLVNAIVFKGLWEKAFKDEDTQAMPFRVTEQESKPVQMMYQIGLFRVASMASEKMKILELPFASGTMSMLVLLPDEVSGLEQLESIINFEKLTEWTSSNVMEERKIKVYLPRMKMEEKYNLTSVLMAMGITDVFSSSANLSGISSAESLKISQAVHAAHAEINEAGREVVGSAEAGVDAASVSEEFRADHPFLFCIKHIATNAVLFFGRCVSP
# B2: Myoglobin: source horse heart (protein, UniProt P68082 2-154, looked up)
# Myoglobin: GLSDGEWQQVLNVWGKVEADIAGHGQEVLIRLFTGHPETLEKFDKFKHLKTEAEMKASEDLKKHGTVVLTALGGILKKKGHHEAELKPLAQSHATKHKIPIKYLEFISDAIIHVLHSKHPGDFGADAQGAMTKALELFRNDIAAKYKELGFQG
# How the values were obtained:
# [1] = system: C3H/10T½ cells; test: Effect of proteins on anti-apoptotic activity of soy LPA, C3H/10T½ cell assay; type: cell-based; conditions: for Protein + 10 μg/mL Soy LPA, percent cells saved from apoptosis: 1:10 soy-LPA to protein (weight:weight), 24 h serum deprivation; for enhancement of the anti-apoptotic activity of LPA: protein added together with soy-LPA
# Protocol: Soy derived LPA (soy-LPA) (Avanti® Polar Lipids, Inc., Alabaster, Ala.) was stored in an organic solution and was dried immediately prior to assay using a Speed Vac (Savant Instruments, Hicksville, N.Y.). Tested proteins were resuspended at 10 mg/mL in a bicarbonate buffered saline/EDTA solution (50 mM NH4HCO3, 104 mM NaCl, 250 μM EDTA) prior to being added to dried soy-LPA at a 1:10 soy-LPA to protein (weight:weight) ratio. The mixture was then sonicated for 5 minutes using a high power 80 Watt sonication bath (Laboratory Supplies Co., Hicksville, N.Y.). Following sonication, concentrated LPA/protein mixtures were left standing for 15 minutes at room temperature prior to dilution in cell culture assay media.
# The effect of various proteins on the ability of LPA to protect serum-starved cells from apoptotic death was measured using the C3H/10T½ cell assay, performed as described in Example 2, above. Log phase cells were seeded in 60 mm Petri dishes at 175-350 cells per cm^2 and maintained in Basal Medium Eagle (BME) supplemented with 10% fetal calf serum (Hyclone, Logan, Utah). At time zero, serum containing media was replaced with sterile filtered BME containing the LPA/protein mixture to be tested. After 24 hours of treatment, serum deprived release (SDR) cells (the apoptotic cell population) and adherent (ADH) cells were separated and counted using an electronic cell counter (Coulter Corporation, Hialea, Fla.). SDR cells were counted with the lower threshold setting at 6.3 μm and were defined as the apoptotic cells dying in response to cultivation in serum-free-media. Approximately 95% of the SDR cells are confirmed to be apoptotic as previously shown by size, ultrastructure and DNA fragmentation analysis. Adherent cells were removed by treatment with a Hanks' balanced salt solution containing 0.05% trypsin and 0.53 mM EDTA and were counted with the lower threshold setting at 11.01 μm. All samples were tested in triplicate and serum-deprived controls (BME only) were assayed at both the beginning and end of each experiment.
# The effects of various proteins alone or in combination with LPA are expressed as percent cells saved from apoptosis. When C3H10T½ cells were treated with 10 μg/mL soy LPA without protein, 8.0% of the cells were saved. The degree of protection from apoptosis afforded by protein alone, added to the medium at a concentration of 0.1% (wt/vol.), varied from 0.9% to 27.7% of cells saved from apoptosis. An unusually high percentage of cells were protected from serum-starvation-induced apoptosis by casein. This value may be artificially high, as casein preparations have been known to contain growth factors, including insulin-like growth factors (IGF) IGF1 and IGF2. IGF2 is a mitogen that can mask the serum deprivation-induced apoptotic response in these cells.
# [2] = Electrophoresis radiobinding assay on native polyacrylamide gel; type: binding; conditions: 1 nM labeled 18:1-LPA/45 μg protein, 37° C., 60 minutes
# Protocol: Electrophoresis radiobinding assay. Proteins were analyzed on native polyacrylamide gels following incubation with ^3H-labeled 18:1-LPA. ^3H-labeled lysophosphatidic acid (1-oleyl) (DuPont NEN Products, Boston, Mass.) was added to tested proteins at 1 nM labeled 18:1-LPA/45 μg protein. Mixtures were incubated in a bicarbonate buffered saline/EDTA solution at 37° C. for 60 minutes. Incubated samples were mixed with native gel sample buffer (312 mM Tris pH 6.8, 50% glycerol, 0.05% bromophenol blue) and loaded entirely onto an 8% discontinuous native polyacrylamide gel. Following electrophoresis, proteins were fixed into the gels using an aqueous solution consisting of glacial acetic acid, 10% (vol/vol) and methanol 30% (vol./vol.) solution. Fixed gels were then incubated for 60 minutes in autoradiography enhancer (EN^3HANCE, DuPont NEN Products, Boston, Mass.), and dried onto 3M chromatography paper (Whatman, Clifton, N.J.) and exposed to autoradiography film (X-Omat, Kodak, Rochester, N.Y.) for 72 hours at −80° C.
# [3] = system: C3H/10T½ cells; test: C3H/10T½ serum deprivation anti-apoptotic activity assay; type: cell-based; conditions: for Maximum effect relative to 18:1 LPA: LPA alone, 24 h serum deprivation, 18:1 LPA = 100%; for activity compared with lysophosphatidic acid: summary of Table 3
# Description: In order to determine the apoptotic activity of the claimed invention, the following method of analysis was used. The-cell assay is described in detail in U.S. Pat. Nos. 5,637,486, 5,620,888, and 5,681,703, and Tomei et al. (1993) Proc Natl. Acad. Sci. 90:853-857. Briefly, mouse fibroblast C3H/10T½ cells (clone 8) were obtained from ATCC (Rockville, Md.) and were maintained in exponential growth phase in which the cell cycle is randomly distributed and no cells are arrested in G0, and in quiescence. Exponential growth phase was assured by seeding at 2000 cells per 1 ml (5 ml for a 60 mm culture plate) five days prior to the beginning of the experiment. Assays were performed on cells only up to passage 15. At T=0, cultures were transferred to serum-free medium, as an apoptosis stimulus, and seed extracts were added. Controls included 10-7 and 5×10^-8 M 12-O-tetradecanoyl phorbol-13-acetate (TPA) to ensure the responsiveness of the cell culture. The samples were added to serum free medium and sterile filtered prior to addition to the cultures. Assays were performed in triplicate or quadruplicate. Analyses of the cell responses were made between 18 and 28 hours of serum deprivation. Two assays were performed on each cell culture plate consisting of differential cell counts.
# 1. All non-adherent or loosely adherent cells were removed from the culture dish and counted by appropriate techniques, typically counting by electronic particle counting instrument. These are the apoptotic cells, the serum deprived released cells (SDR), released by the action of cultivation in serum-free medium. Approximately 95% of these released cells are apoptotic as shown by both ultrastructure analysis and DNA fragmentation analysis.
# 2. The remaining adherent cells (ADH) were exposed to a buffered, typically pH 7.3, balanced salt solution such as Hanks Balanced Salt Solution without calcium and magnesium salts containing 0.05% trypsin and 0.53 mM ethylene diaminetetraacetic acid (EDTA). Each culture was incubated at either room temperature or 37° C. on a rocking platform to ensure uniform distribution of the trypsin reagent over the culture surface. After a standardized period of time, typically 10 minutes, the released cells were removed from each culture dish and measured by the same means as described above, typically electronic particle counting. This ADH cell count is comprised of both trypsin resistant and trypsin sensitive cells as described in U.S. Pat. Nos. 5,637,486, 5,620,888, and 5,681,703.
# Anti-apoptotic activity is expressed in the following examples as the calculated concentration of material (μg/ml of media) required to save 50% of the cells released on serum free treatment.
# The ability of 18:1-LPA and other LPAs to protect serum-starved cells from apoptotic death was measured using the C3H/10T½ cell assay, performed as described in Example 2. The effect of various compounds on the ability of lysophosphatidic acid to protect serum-starved cells from apoptotic death was also measured. Log phase cells were seeded in 60 mm Petri dishes at 175-350 cells per cm2 and maintained in Basal Medium Eagle (BME) supplemented with 10% Heat Inactivated Fetal Bovine Serum (HIFBS). On day 3 the cells were given fresh media. Treatment began on day 5 when the media containing serum was removed and replaced with the LPA mixture to be tested. After 24 hours of treatment, day 6, serum deprived released (SDR) cells (the apoptotic cell population) and adherent (ADH) cells were separated and counted using an electronic cell counter Coulter Corporation, Hialea, Fla.). SDR cells were counted with the lower threshold setting at 6.3 μm and were defined as the apoptotic cells dying in response to cultivation in serum free media. Approximately 95% of the SDR cells were confirmed to be apoptotic as previously shown by size, ultrastructure and DNA fragmentation analysis. […]
# [4] = Size shift assay on Superdex S75 column; type: binding; conditions: soy LPA with 0.5 μCi ^3H-labeled 18:1-LPA, with test protein
# Protocol: Size shift assay. Size analysis of LPA both with and without protein was performed using a Superdex® S75 column (Pharmacia Biotech, Uppsala, Sweden). Soy LPA was combined in a chloroform solution with 0.5 μCi ^3H-labeled 18:1-LPA (DuPont NEN Products, Boston, Mass.), dried under vacuum and resuspended by sonication in a buffered solution (50 mM ammonium bicarbonate, 154 mM sodium chloride, pH 8.0) in the presence or absence of test protein. The ammonium bicarbonate/sodium chloride solution was used as the mobile phase at a flow rate of 1 ml/min. One-minute fractions were collected for 30 minutes following sample injection. Fractions were counted in scintillant solution using a liquid scintillation counter (Beckman Instruments, Irvine, Calif.). Calibration was performed using a standard solution containing purified proteins (BioRad, Hercules, Calif.).
# [5] = compounds exhibiting toxicity, Table 3 column Concentration for Max Effect
molecule,measurement,setting,value
Acyl Carrier Protein: source E. coli,"Protein + 10 μg/mL Soy LPA, percent cells saved from apoptosis",[1],36.2%
same,Detectable Acrylamide Gel ^3H LPA Binding (+/−),[2],did not yield detectable bands
Myelin Basic Protein,"Protein + 10 μg/mL Soy LPA, percent cells saved from apoptosis",[1],17.0%
same,enhancement of the anti-apoptotic activity of LPA,[1],did not enhance
Casein,"Protein + 10 μg/mL Soy LPA, percent cells saved from apoptosis",[1],84.3%
"CCCCCCCCCCCCCCOCC(O)COP(=O)(OC)OC (racemic) [Compound 3, Dimethyl 3-O-tetradecyl-rac-glycero-1-phosphate]",Maximum effect relative to 18:1 LPA,[3],Toxic
same,lowest concentration at which cytotoxic effects were observed,[3]; [5],30 µM
Dimethyl 3-amino-3-N-oleoyl-propyl phosphate [Compound 53],Maximum effect relative to 18:1 LPA,[3],Toxic
same,lowest concentration at which cytotoxic effects were observed,[3]; [5],100 µM
"CCCCCCCCCCCCCCOCC1CO1 (stereo not shown) [Compound 8, 1-O-Tetradecyl-glycidol]",Maximum effect relative to 18:1 LPA,[3],Toxic
same,lowest concentration at which cytotoxic effects were observed,[3]; [5],30 µM
"CCCCCCCCCCCCCCOCC(O)COP(=O)(O)O (racemic) [Compound 4, 3-O-Tetradecyl-rac-glycero-1-phosphate]",Maximum effect relative to 18:1 LPA,[3],Toxic
same,lowest concentration at which cytotoxic effects were observed,"[3]; mouse, 24 h",10 µM
"CCCCCCCC/C=C\CCCCCCCC(=O)OCC(COP(O)(O)=S)OC (racemic) [Compound 48, 3-O-Oleoyl-2-O-methyl-rac-glycero-1-thiophosphate]",activity compared with lysophosphatidic acid,[3],significantly higher than lysophosphatidic acid
"CCCCCCCC/C=C\CCCCCCCCOC(=O)C(COP(O)(O)=S)OC (racemic) [Compound 78, Oleyl 1-thiophosphoryl-2-O-methyl-rac-glycerate]",activity compared with lysophosphatidic acid,[3],significantly higher than lysophosphatidic acid
"CCCCCCCC/C=C\CCCCCCCCOCC(COP(O)(O)=S)OC (racemic) [Compound 66, 3-O-Oleyl-2-O-methyl-rac-glycero-1-thiophosphate]",activity compared with lysophosphatidic acid,[3],significantly higher than lysophosphatidic acid
Albumin (Fatty Acid Depleted): fatty acid depleted (FAD) bovine serum albumin (BSA),"Protein + 10 μg/mL Soy LPA, percent cells saved from apoptosis",[1],58.7%
same,3H-LPA Size Shift Analysis (+/−),[4],most of the LPA was bound to BSA
same,Detectable Acrylamide Gel ^3H LPA Binding (+/−),[2],bind to 18:1-LPA
"Phosphatidylserine [Phosphatidylserine (PS), reference compound]",toxicity to serum-deprived cells,[3]; PS alone (FIG. 2),slightly toxic
Cytochrome C: source bovine heart,"Protein + 10 μg/mL Soy LPA, percent cells saved from apoptosis",[1],54.6%
same,3H-LPA Size Shift Analysis (+/−),[4],LPA does not bind to this protein
"CCCCCCCC/C=C\CCCCCCCC(=O)NCCOP(=O)(OC)OC [Compound 59, Dimethyl 2-amino-2-N-oleoyl-ethyl phosphate]",Maximum effect relative to 18:1 LPA,[3],Toxic
same,lowest concentration at which cytotoxic effects were observed,[3]; [5],30 µM
B1,"Protein + 10 μg/mL Soy LPA, percent cells saved from apoptosis",[1],15.1%
same,enhancement of the anti-apoptotic activity of LPA,[1],did not enhance
same,Detectable Acrylamide Gel ^3H LPA Binding (+/−),[2],detectable band
B2,"Protein + 10 μg/mL Soy LPA, percent cells saved from apoptosis",[1],27.8%
